We go through one compound from article PMC12481569, “Novltex: A New Class of Antibiotics with Potent Activity against Multidrug-Resistant Bacterial Pathogens–Design, Synthesis, and Biological Evaluation” (Journal of Medicinal Chemistry, 2025).

Positions of bridges follow the written chain, without caps; N, C: chain ends. Non-standard residues stand in square brackets, D forms with d. Residues, ends and D or L forms follow the SMILES beside them. dCha = N[C@H](CC1CCCCC1)C(=O)O

One data set has as its system MRSA DM21455. In words: Cytoplasmic membrane potential DiSC3(5) assay. It is filed as cell-based, Staphylococcus aureus. The settings on record: 1× to 16× MIC, 1 h, room temperature, ex 622/em 670 nm; pronounced at 4× MIC. Here is the method: To determine whether the bactericidal activity of analogue 12 is linked to bacterial membrane perturbations, we performed a DiSC3(5) assay, which utilizes a membrane-potential-sensitive dye to assess cytoplasmic membrane depolarization of MRSA. […]
day, cells were treated in triplicates with increasing concentrations of Novltex analogue 12, as indicated in the corresponding figure and the figure legend (Figure 4A-C). Cells were treated with 1 µM Staurosporine (MedChemExpress #HY-15141) as a positive kill control. Cell viability assessed after 24 h or 48 h incubation using an MTS-based CellTiter 96® AQueous One Solution Cell Proliferation Assay (Promega #G3582, Southampton UK) as per manufacturer’s instructions. Absorbance was recorded at 490 nm. Relative cell viability was determined by subtracting the blank (cell culture medium and MTS only) from individual values before normalizing against the untreated control.
Anonymized human blood samples were received from the Health Sciences Authority, Singapore and used as per the institutional guidelines and approved by the Institutional Review Board (IRB -2023-1019) of Nanyang Technological University Singapore. […] The supernatant was transferred to a new 96-well microplate and the absorbance was measured at 576 nm in the Infinite M200 monochromator microplate reader (Tecan Group Ltd., Switzerland). […]

The test system of data set [1] is human red blood cells (RBCs). In words: Hemolysis assay. Format: cell-based. The settings on record: 1 h, 37 °C, PBS pH 7.0, absorbance 576 nm, 4 donors in duplicate. Here is the method: 4 Cytotoxicity evaluation of analogue 12. Human primary dermal fibroblasts (A), liver cell line HepG2 (B), and kidney cell line HEK293T (C) cells (5 × 10^3 cells/well in 96-well plates) were treated with increasing concentrations of analogue 12 or 1 μM staurosporine (STS, used as a positive toxicity control) for 24 or 48 h, as indicated. Viability of cells was determined using an MTS-based assay. Results (% cell viability) are the mean ± SD of three independent experiments performed in triplicate. (D) Freshly collected human red blood cells (RBCs) were exposed to increasing concentrations of 12 or Triton X-100 (TX), as indicated, for 1 h. Hemolytic activity (% hemolysis) was determined by spectrophotometrically measuring the release of hemoglobin compared to that with TX (used as a positive control). […]
day, cells were treated in triplicates with increasing concentrations of Novltex analogue 12, as indicated in the corresponding figure and the figure legend (Figure 4A-C). […] Cell viability assessed after 24 h or 48 h incubation using an MTS-based CellTiter 96® AQueous One Solution Cell Proliferation Assay (Promega #G3582, Southampton UK) as per manufacturer’s instructions. Absorbance was recorded at 490 nm. Relative cell viability was determined by subtracting the blank (cell culture medium and MTS only) from individual values before normalizing against the untreated control. […]

Take `CC(C)C[C@@H]1NC(=O)[C@H](C)NC(=O)[C@H](NC(=O)[C@H](CO)NC(=O)[C@@H](CCCCN)NC(=O)[C@@H](CC2CCCCC2)NC(=O)[C@@H](N)Cc2ccccc2)[C@H](C)OC(=O)[C@H](CC(C)C)NC1=O` [analogue 12, Leu2Cha–Novltex] (H-F[dCha][dK]S[dT]ALL; ester 5-C): in the data set with MRSA DM21455, the “change in DiSC3(5) fluorescence intensity (membrane depolarization)” value was “substantial increase in fluorescence intensity”. For the same compound, the “hemolysis of human erythrocytes” value in data set [1] (62.5 μg/mL (125× MIC)) is “low hemolysis”; in data set [1] (concentrations up to 31.2 μg/mL) it was “no detectable hemolysis”.
